# Measurements as given in article PMC12410356 (International Journal for Parasitology: Drugs and Drug …, 2025).
# Assays:
# [1] = tested on: E. multilocularis metacestode vesicles; assay: Metacestode vesicle viability assay (ATP, CellTiter-Glo); type: cell-based, Echinococcus multilocularis; conditions: for effect on metacestode vesicle viability (in words): twelve days, cut-off viability ≤30 %
# Method: Viability was assessed after 12 days using the same metacestode vesicles as for the PGI release assay. Triton X-100 was added to each well to a final concentration of 0.1 %. Subsequently the metacestode vesicles were broken mechanically and 50 μL of the supernatant was mixed with 50 μL of CellTiter-Glo® buffer (Promega, Dübendorf, Switzerland). Measurements were performed on a HIDEX Sense microplate reader.
# [2] = tested on: E. multilocularis metacestode vesicles; assay: Phosphoglucose isomerase (PGI) release assay (damage-marker release) on metacestode vesicles; type: cell-based, Echinococcus multilocularis; conditions: 10 μM; for PGI d5 (relative PGI release): 5 days; for PGI d12 (relative PGI release): 12 days; for activity in the PGI release assay (in words): twelve days, cut-off PGI release ≥20 %
# [3] = overview screen, 10 μM, singlets, 12 days, relative to DMSO control
# [4] = overview screen, singlets, relative to 0.1 % Triton X-100, DMSO subtracted
# [5] = confirmation screen, 10 μM, triplicates, mean, 12 days
# [6] = confirmation screen, triplicates, mean
SMILES,"Viability d12 (relative viability) [1, 3] [%]","PGI d5 (relative PGI release) [2, 4] [%]","PGI d12 (relative PGI release) [2, 4] [%]",other results
O=C(Nc1nnc(-c2ccc(Cl)cc2)o1)c1nc2ccccc2s1 [MMV102833],141.762,3.0788,1.422,–
COc1cc(C2C3=C(CC(C)(C)CC3=O)Nc3ccccc3N2C(C)=O)ccc1OCc1ccccc1 (stereo not shown) [MMV1634557],141.611,-2.659,-23.764,–
COc1cc(NS(=O)(=O)c2ccc(C)cc2)c2ncccc2c1 [MMV098836],72.5053,-0.2103,2.3899,–
COc1ccc(NC(=O)CC2Sc3ncnn3C2=O)cc1 (stereo not shown) [MMV1483032],68.4676,0.1451,-11.504,–
C[C@@H](NC(=O)c1ccccc1-c1ccccc1)B(O)O [MMV1582493],135.265,-2.006,35.0936,–
"CC(=O)Oc1ccccc1C(=O)Nc1ncc([N+](=O)[O-])s1 [nitazoxanide, reference compound]",–,37.9028,44.5196,"viability at 10 µM ([1]; Echinococcus multilocularis, 288 h, overview screen, 10 μM, singlets, 12 days, relative to DMSO control, read-out: Viability d12 (relative viability)): 38.4%; effect on metacestode vesicle viability (in words) ([1]; overview screen, 10 μM): did not meet the threshold in the metacestode viability assay; effect on metacestode vesicle viability (in words) ([1]; overview screen, 10 μM, listed as MMV688991): did not reduce the metacestode vesicle viability; activity in the PGI release assay (in words) ([2]; overview screen): showed activity in the PGI release assay; activity in the PGI release assay (in words) ([2]; overview screen, listed as MMV688991): active in the PGI assay after twelve days"
O=C(O)COc1cccc2c1CC[C@](O)(COC(=O)N(c1ccccc1)c1ccccc1)C2 [MMV1782352],68.1339,-0.08001,-0.2818,–
CCc1cc(O)c(Oc2ccc(C(N)=O)cc2F)cc1F [MMV1578564],125.644,19.4124,-2.538,–
CN1CCN(c2ccc3[nH]c(-c4ccc5[nH]c(-c6ccc(O)cc6)nc5c4)nc3c2)CC1 [MMV020752],–,-2.507,7.527,Viability d12 (relative viability) ([1]; 10 µM): 69.6365%
COc1ccc2c(c1OC)C(=O)OC2C1c2c(cc3c(c2OC)OCO3)CCN1C (stereo not shown) [MMV002780],419.126,-0.3679,-3.872,–
OB1OCc2c1ccc(Cl)c2F [MMV1782226],39.4941,-2.405,-26.1495,–
Nc1c(C(=O)NCc2ccco2)c2nc3ccccc3nc2n1CCN1CCCCC1 [MMV099714],63.8129,2.984,44.8288,–
CCCCOC(=O)Nc1cc2nc(C3CCCCC3)[nH]c2cc1N(CC)CC [MMV1578842],6.68,1.645,57.0254,"Viability d12 (relative viability) [1, 5]: 57.98%; PGI d5 (relative PGI release) [2, 6]: -0.74%; PGI d12 (relative PGI release) [2, 6]: 0.24%"
CCNC(=O)Nc1cc(-c2ccccc2)c(-c2cncc(C(=O)O)c2)cn1 [MMV1593534],81.2426,-2.168,-24.3929,–
CC(=O)N1c2ccccc2NC2=C(C(=O)CC(C)(C)C2)C1c1ccc(OCc2ccccc2)cc1 (stereo not shown) [MMV1580503],72.2027,1.18,-18.9728,–
[N-]=[N+]=N[C@H]1C[C@H](n2ccc(=O)[nH]c2=O)O[C@@H]1CO [MMV1593520],90.373,0.5917,-8.089,–
Oc1ccc2[nH]c(-c3ccccc3)nc2c1 [MMV292173],56.2358,-3.6461,2.293,–

SMILES,"Viability d12 (relative viability) [1, 3] [%]","PGI d5 (relative PGI release) [2, 4] [%]","PGI d12 (relative PGI release) [2, 4] [%]",other results
NC(N)=NCCCCC(=O)Nc1cc(C(F)(F)F)cc(NC(=O)c2cc(C(=O)Nc3cc(C(F)(F)F)cc(NC(=O)CCCCN=C(N)N)c3O[C@@H]3CCNC3)ncn2)c1O[C@@H]1CCNC1 [MMV1634402],96.1157,-1.176,3.242,–
O=C(O)C[C@H]1CC[C@H](c2ccc(-c3ccc(Nc4ccc(C(F)(F)F)nc4)cn3)cc2)CC1 [MMV1580498],139.746,0.9992,1.035,–
COc1ccc(SC(=O)N[C@H](CCC(=O)O)C(=O)O)cc1 [MMV1580846],126.077,-0.9041,-2.09,–
O=C(NCc1ccc(F)cc1)c1c(O)c2ncccc2[nH]c1=O [MMV1782097],171.617,0.7945,-0.6563,–
O=[N+]([O-])/C(Br)=C/c1ccc(Br)o1 [MMV1645051],16.4489,1.139,-20.9736,–
C[C@H]1CC[C@@]2(O)C(C)(C)[C@@H]3CC[C@@]2(C)[C@H]1C3 [MMV1578556],153.384,-0.5138,-7.5984,–
CC(C)(C)c1ccc(C(Cn2cccc(C(F)(F)F)c2=O)NC2Cc3ccccc3C2)cc1 (stereo not shown) [MMV1634393],102.314,-0.3467,0.3021,–
CN(C(=O)C1(c2ccc(Cl)cc2)CCC1)c1ccccc1 [MMV1581030],114.111,0.6829,-0.7665,–
Cc1oncc1C(=O)Nc1ccc(C(F)(F)F)cc1 [MMV003291],–,0.3849,-17.479,Viability d12 (relative viability) ([1]; 10 µM): 99.9529%
O=S(=O)(Nc1cccc2cccnc12)c1ccccc1 [MMV1578890],2.254,53.5139,49.7638,"Viability d12 (relative viability) [1, 5]: 68.64%; PGI d5 (relative PGI release) [2, 6]: 0.50%; PGI d12 (relative PGI release) [2, 6]: -0.0456%"
CCNC(=O)Nc1cc2c(-c3ccnc(C)c3)ccc(CNC(=O)OC)c2cn1 [MMV1634390],29.4745,1.116,-26.1278,–
CC(C)(C)NC(=O)[C@@H]1CN(Cc2cnc3occc3c2)CCN1C[C@@H](O)C[C@@H](Cc1ccccc1)C(=O)N[C@H]1c2ccccc2C[C@H]1O [MMV1782353],92.6641,0.2673,-0.3369,–
COc1cc2c(O)c3c(c(-c4ccc5c(c4)OCO5)c2cc1OC)C(=O)OC3 [MMV102270],116.78,-1.791,18.1463,–
Nc1nc(N)c2c(Sc3ccccc3)cccc2n1 [MMV021759],37.4067,-5.79,-12.5973,–
CNc1nc(=O)[nH]cc1F [MMV1782388],224.858,-3.006,-25.8676,–
CN(C)CCNC(=O)c1cccc2cccnc12 [MMV811071],78.9047,0.8254,33.0305,–
Cc1onc(-c2ccccc2)c1-c1ccc(S(N)(=O)=O)cc1 [MMV002260],84.2251,0.1005,-4.614,–
